The values below come from paper PMC8876625 (Pharmaceuticals, 2022).

In one data set the test system is 16HBE cells. As to the kind of experiment: Static permeation study with 16HBE cell monolayer on porous membrane. The format is in vitro ADME, human. The settings on record: for potential metabolism in the pulmonary epithelial cells: static cellular experiments, from mass balance; for active transport in 16HBE cells: static cellular study, equilibrium with similar apical and basolateral concentrations. On the procedure: (§1) The bronchial cell line 16HBE was cultivated in Dulbecco's modified Eagle medium (DMEM/F12 with L-glutamine and HEPES; Gibco 11039-021, Thermo Fisher Scientific, Waltham, MA, USA), supplemented with 10% fetal bovine serum (FBS, […][…], Sigma Aldrich, St. Louis, MO, USA), 100 U/mL penicillin, and 100 μg/mL streptomycin (Gibco 15140-122, Thermo Fisher Scientific). The cells were cultivated in a humidified atmosphere at 37 °C and 5% CO2. The bronchial cell line 16HBE was obtained from Dr. […] (Cardiovascular Research Institute, University of California). […] The cells were cultivated in a 24-well plate (662160, Greiner bio-one, Frickenhausen, Germany) at 37 °C for five days under a physiological pH in the range of 7.0-7.4 with one CCM exchange after two days. […] The basolateral compartment was filled with fresh CCM. After model substance exposure, total apical, and basolateral CCM were collected each in a 1.5 mL tube ([…] Biotech GmbH & Co. […] For each time point, a separate cell culture insert was used. Samples were then stored at 4 °C until further analysis via HPLC. After the static and fluidic permeation studies, the model substances in the apical and basolateral CCM were quantified via HPLC measurements as described in […] et al.. […] The mobile phase consisted of three running agents: water (solvent A; sterile filtered 0.2 μm pore), acetonitrile (Solvent B; J.T. Baker), and 0.1% trifluoroacetic acid (TFA) in water (Solvent C; Fisher Scientific). The flow rate was set to 0.4 mL/min with 5 μL of the sample injected. […] For detection, a diode array detector (DAD) was used at a wavelength of 275 nm. To model the static in vitro permeation experiments (control and cell experiments), a bidirectional single-barrier model was implemented as a two-compartment ODE system. […] Thereby, […],i reflects the compound permeability through all present permeation barriers in the respective experimental setup, such as unstirred water layers, the porous filter membrane, and cell monolayer (apparent permeability). […] During parameter estimation in the static permeation study, permeability parameters ([…],i) were estimated by fitting the model-simulated concentrations to the observed experimental data via first-order conditional estimation method with interaction (FOCE-I) in […]®, using a combined proportional and additive residual error model (Equation (6)).

Test in data set [1]: as above
In kind it is in vitro ADME, human. The settings on record: human; static, with 16HBE lung cell barrier, 100 µM apical, 72 h, model parameter estimate; read-out: P12, apparent permeability from the apical to the basolateral compartment and vice versa (converted). On the procedure:
as §1

Data set [2] can be described thus: Static permeation study without lung cells (control, porous membrane only). In kind it is in vitro ADME. As to conditions: not told, control without lung cell barrier (porous membrane 0.4 µm, 0.6 cm^2), 100 µM apical, model parameter estimate, read-out: P12, apparent permeability from the apical to the basolateral compartment and vice versa (converted). The method, then: The cells were cultivated in a 24-well plate (662160, Greiner bio-one, Frickenhausen, Germany) at 37 °C for five days under a physiological pH in the range of 7.0-7.4 with one CCM exchange after two days. […] The basolateral compartment was filled with fresh CCM. After model substance exposure, total apical, and basolateral CCM were collected each in a 1.5 mL tube (Kisker Biotech GmbH & Co. […] For each time point, a separate cell culture insert was used. Samples were then stored at 4 °C until further analysis via HPLC. […] After the static and fluidic permeation studies, the model substances in the apical and basolateral CCM were quantified via HPLC measurements as described in Elberskirch et al.. […] Separation was performed using a Poroshell 120 EC-C18 column (2.1 × 100 mm, 2.7 μm; 695775-902, Agilent Technologies) connected to a guard column (Poroshell 120 EC-C18, 2.1 × 5 mm, 2.7 μm, Agilent Technologies). The mobile phase consisted of three running agents: water (solvent A; sterile filtered 0.2 μm pore), acetonitrile (Solvent B; J.T. Baker), and 0.1% trifluoroacetic acid (TFA) in water (Solvent C; Fisher Scientific). The flow rate was set to 0.4 mL/min with 5 μL of the sample injected. […] For detection, a diode array detector (DAD) was used at a wavelength of 275 nm. […]

Data set [3] is described as follows: Fluidic permeation study (QuasiVivo QV600) with 16HBE cell barrier. In kind it is in vitro ADME. The settings on record: human; fluidic cell experiment, 200 µL/min; static P12 multiplied by factor F; read-out: P16, apparent permeability between the apical and basolateral chambers in the fluidic system (converted). The method, then: Fluidic permeation studies were performed in the MCmB QuasiVivo® […]), which was assembled according to the manufacturer's instructions. An apical and basolateral flow with a flow rate of 200 μL/min was used (Figure 7b). […] The apical circuit consisted of the apical reservoir bottle, the apical part of the pulmonary chamber, the pump, a three-way cock (B.Braun 4095111; dosing/sampling port; in order of medium flow), and connecting tubes. The basolateral circuit comprised the basolateral reservoir bottle, the basolateral part of the pulmonary chamber, a second chamber allowing the integration of additional cell tissues, the pump, the basolateral sampling port (in order of medium flow), and connecting tubes (Figure 8). Different tubing ([…]-2 Tubing set; […] VWR 228-1066, Radnor, PA, USA) was used to establish the optimal connection between the reservoir bottles, cell chambers, pump, and sampling ports. For the in vitro cell permeation studies, 4.3 × 10^4 16HBE cells were seeded in a cell culture insert with a pore size of 0.4 μm and a growth area of 0.6 cm^2 (PIHP 012 50, Merck Millipore) and cultivated at 37 °C for five days. […] After the static and fluidic permeation studies, the model substances in the apical and basolateral CCM were quantified via HPLC measurements as described in Elberskirch et al.. […]

Data set [4] has as its system human bronchial epithelial cell line Calu-3. Set-up: method as in earlier work. As to conditions: Calu-3 cells; ref 5 (Mathias et al.); cited from earlier work.
For data set [5] the following is noted: cited from earlier work.

Structures can show the parent of a compound that is named as a salt.

For the compound `Cn1c(=O)c2c(ncn2C)n(C)c1=O` [caffeine], in the data set on 16HBE cells, the “potential metabolism in the pulmonary epithelial cells” value is recorded as “negligible” and the “active transport in 16HBE cells” value is given as “neither caffeine nor diclofenac were subject to active transport”. Besides, in data set [1], the Papp A→B at 72 h, 100 µM was 43.7 ×10⁻⁶ cm/s. The Papp A→B at 72 h, 100 µM in data set [2] is 54.5 ×10⁻⁶ cm/s. In addition, the Papp at 72 h, 100 µM in data set [3] is 14.9 ×10⁻⁶ cm/s. The “apparent permeability (published value)” value in data set [4] was 21.8 ×10⁻⁶ cm/s.
For `O=C(O)Cc1ccccc1Nc1c(Cl)cccc1Cl` [diclofenac, diclofenac sodium salt], in the data set on 16HBE cells, the “potential metabolism in the pulmonary epithelial cells” value is reported as “negligible” and the “active transport in 16HBE cells” value is given as “neither caffeine nor diclofenac were subject to active transport”. Moreover, the Papp A→B at 72 h, 100 µM in data set [1] is 23 ×10⁻⁶ cm/s. The logP in data set [5] was ~ 4. In data set [2], the Papp A→B at 72 h, 100 µM is 41.8 ×10⁻⁶ cm/s. For the same compound, the Papp at 72 h, 100 µM in data set [3] was 3.92 ×10⁻⁶ cm/s.
